Data from ChEMBL document CHEMBL3804805, “Cathepsin B Inhibitors: Combining Dipeptide Nitriles with an Occluding Loop Recognition Element by Click Chemistry” (ACS Med Chem Lett, 2016).

Tests used:
[1] = target: T1, Cathepsin B (Homo sapiens, UniProt P07858); assay: Inhibition of human liver cathepsin B using Cbz-Arg-Arg-pNA as substrate at pH 6 incubated for 30 mins measured for 20 mins by photometrical analysis
[2] = target: Procathepsin L (Homo sapiens, UniProt P07711); assay: Inhibition of human liver cathepsin L using Cbz-Phe-Arg-pNA as substrate incubated for 30 mins measured for 20 mins by photometrical analysis
[3] = target: Cathepsin S (Homo sapiens, UniProt P25774); assay: Inhibition of human recombinant cathepsin S using Cbz-Phe-Arg-AMC as substrate incubated for 60 mins measured for 20 mins by spectrofluorometrical analysis
[4] = target: T2, Cathepsin K (Homo sapiens, UniProt P43235); assay: Inhibition of human recombinant cathepsin K using Cbz-Leu-Arg-AMC as substrate incubated for 30 mins measured for 20 mins by spectrofluorometrical analysis
T2 sequence (P43235 whole entry): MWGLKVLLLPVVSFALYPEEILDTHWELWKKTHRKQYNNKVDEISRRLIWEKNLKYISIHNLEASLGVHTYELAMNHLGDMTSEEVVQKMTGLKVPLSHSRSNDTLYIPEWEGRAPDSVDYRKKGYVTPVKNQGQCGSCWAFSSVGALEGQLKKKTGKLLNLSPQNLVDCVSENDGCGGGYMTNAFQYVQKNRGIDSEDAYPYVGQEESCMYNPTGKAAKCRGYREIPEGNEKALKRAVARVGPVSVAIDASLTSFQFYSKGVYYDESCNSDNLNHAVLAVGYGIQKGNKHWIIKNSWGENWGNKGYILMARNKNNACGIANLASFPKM

[5] = target: T1, Cathepsin B; assay: Inhibition of human liver cathepsin B using Cbz-Arg-Arg-pNA as substrate at pH 4.5 incubated for 30 mins measured for 20 mins by photometrical analysis
[6] = target: T1, Cathepsin B; assay: Inhibition of human liver cathepsin B using Abz-Gly-Ile-Val-Arg-Ala-Lys(Dnp)-OH as substrate at pH 4.5 incubated for 30 mins measured for 10 mins by […]
[7] = target: T1, Cathepsin B; assay: Inhibition of human cathepsin B

Sequence of Procathepsin L (P07711 whole entry): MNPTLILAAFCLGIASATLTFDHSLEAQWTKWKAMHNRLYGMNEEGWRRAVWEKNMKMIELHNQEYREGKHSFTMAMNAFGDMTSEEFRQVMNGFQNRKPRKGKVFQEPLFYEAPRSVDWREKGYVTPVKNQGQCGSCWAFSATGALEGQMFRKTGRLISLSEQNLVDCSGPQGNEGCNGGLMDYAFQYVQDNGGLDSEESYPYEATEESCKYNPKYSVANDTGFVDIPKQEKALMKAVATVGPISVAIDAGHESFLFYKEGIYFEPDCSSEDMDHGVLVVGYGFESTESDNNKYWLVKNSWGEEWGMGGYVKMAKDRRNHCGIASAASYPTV
Sequence of Cathepsin S (P25774 whole entry): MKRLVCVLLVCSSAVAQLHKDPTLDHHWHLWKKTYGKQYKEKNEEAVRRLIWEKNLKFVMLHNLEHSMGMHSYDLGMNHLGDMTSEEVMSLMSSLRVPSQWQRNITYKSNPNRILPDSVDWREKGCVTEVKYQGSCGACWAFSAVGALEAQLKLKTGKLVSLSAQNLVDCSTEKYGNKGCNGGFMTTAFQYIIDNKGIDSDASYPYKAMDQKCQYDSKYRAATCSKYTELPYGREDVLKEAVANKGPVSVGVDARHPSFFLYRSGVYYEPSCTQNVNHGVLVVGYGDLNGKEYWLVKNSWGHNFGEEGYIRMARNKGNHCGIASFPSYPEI

Row | Structure (SMILES) | Ki [1] [µM] | other results
1 | CC(C)C[C@H](NC(=O)Nc1ccc(-c2noc(-c3cccs3)n2)cc1)C(=O)NCC#N | > 0.33 | 
2 | CC(C)C[C@H](NC(=O)c1ccc(-c2noc(-c3cccs3)n2)cc1)C(=O)NCC#N | > 0.33 | 
3 | CC(=O)N[C@@H](Cc1ccccc1)C(=O)NCC#N | > 0.33 | 
4 | CC(C)(C)OC(=O)N[C@@H](CCc1ccccc1)C(=O)NCC#N | > 0.33 | 
5 | CC(C)[C@H](NC(=O)OC(C)(C)C)C(=O)NCC#N | > 0.33 | 
6 | CC(C)(C)OC(=O)NCC(=O)NCC#N | > 0.33 | 
7 | N#CCNC(=O)CNC(=O)OCc1ccccc1 | > 0.33 | 
8 | CC(C)(C)OC(=O)N1CCC[C@H]1C(=O)NCC#N | > 0.33 | 
9 | N#CCNC(=O)C1(NC(=O)OCc2ccccc2)CCCCC1 | > 0.33 | 
10 | N#CCNC(=O)[C@H](Cc1ccccc1)NC(=O)c1ccc(-c2ccccc2)cc1 | 3.92 | 
11 | CC(C)(C)OC(=O)N[C@@H](Cc1cccc2ccccc12)C(=O)NCC#N | > 0.33 | 
12 | CC(C)(C)OC(=O)N[C@@H](Cc1ccccc1)C(=O)NCC#N | 37 | 
13 | CC(C)(C)OC(=O)N[C@@H](Cc1ccc(-c2ccccc2)cc1)C(=O)NCC#N | > 0.33 | 
14 | C[C@H](NC(=O)OC(C)(C)C)C(=O)NCC#N | > 0.33 | 
15 | CC(C)(C)OC(=O)N[C@@H](Cc1ccc(Br)cc1)C(=O)NCC#N | > 0.33 | 
16 | CN(CC#N)C(=O)[C@H](Cc1ccccc1)NC(=O)OC(C)(C)C | > 0.33 | 
17 | N#CCNC(=O)[C@H](Cc1ccccc1)NC(=O)OCc1ccccc1 | > 0.33 | 
18 | N#CCNC(=O)[C@H](Cc1ccccc1)NC(=O)c1ccccc1 | > 0.33 | 
19 | CC(C)(C)OC(=O)N[C@@H](Cc1cccc(Br)c1)C(=O)NCC#N | 5.17 | 
20 | CC(C)(C)OC(=O)N[C@@H](Cc1ccc(O)cc1)C(=O)NCC#N | > 0.33 | 
21 | CSCC[C@@H](C#N)NC(=O)C(CC(C)C)NC(=O)c1ccc(-c2ccccc2)cc1 (some centres not stated) | > 0.33 | 
22 | CC(C)(C)OC(=O)N[C@@H](Cc1ccccc1)C(=O)N[C@H](C#N)CC#N | > 0.33 | 

Row | Structure (SMILES) | Ki [1] [µM] | other results
23 | N#C[C@H](CCOCc1cn(CCC(=O)O)nn1)NC(=O)[C@H](Cc1ccccc1)NC(=O)OCc1ccccc1 | 196 | Ki [2]: 1.92 µM; Ki [3]: 0.49 µM; Ki [4]: 0.37 µM
24 | N#C[C@H](CCOCc1cn(CC(=O)O)nn1)NC(=O)[C@H](Cc1ccccc1)NC(=O)OCc1ccccc1 | 101 | Ki [2]: 2.16 µM; Ki [3]: 1 µM; Ki [4]: 0.58 µM
25 | N#C[C@H](COCc1cn(CC(=O)O)nn1)NC(=O)[C@H](Cc1cccc(Br)c1)NC(=O)c1ccc(-c2ccccc2)cc1 | 0.0413 | Ki [2]: 6.3 µM; Ki [5]: 0.0273 µM; Ki [3]: 0.352 µM; Ki [6]: 0.0192 µM; Ki [4]: 0.335 µM
26 | N#CCNC(=O)[C@@H](N)Cc1ccccc1 | > 0.33 | 
27 | CSCC[C@@H](C#N)NC(=O)[C@H](Cc1ccccc1)NC(=O)OC(C)(C)C | > 0.33 | 
28 | CC(C)C[C@@H](C#N)NC(=O)[C@H](C)NC(=O)CNC(=O)OCc1ccccc1 | > 0.33 | 
29 | N#C[C@H](Cc1cn(CCC(=O)O)nn1)NC(=O)[C@H](Cc1cccc(Br)c1)NC(=O)c1ccc(-c2ccccc2)cc1 |  | Ki [2]: 6.98 µM; Ki [3]: 1.8 µM; Ki [4]: 0.226 µM
30 | N#C[C@H](Cc1cn(CC(=O)O)nn1)NC(=O)[C@H](Cc1cccc(Br)c1)NC(=O)c1ccc(-c2ccccc2)cc1 | 11.2 | Ki [2]: 11.7 µM; Ki [5]: 0.707 µM; Ki [3]: 4.23 µM; Ki [6]: 0.368 µM; Ki [4]: 0.535 µM
31 | CC(C)(C)OC(=O)N[C@@H](Cc1cccc(-c2ccccc2)c1)C(=O)NCC#N | 5.35 | 
32 | N#CCNC(=O)[C@H](Cc1ccc(O)cc1)NC(=O)OCc1ccccc1 | > 0.33 | 
33 | N#CCNC(=O)C1(NC(=O)c2ccc(-c3noc(-c4cccs4)n3)cc2)CCCCC1 | > 0.33 | 
34 | N#CCNC(=O)[C@H](Cc1ccc2ccccc2c1)NC(=O)c1ccc(-c2ccccc2)cc1 | 0.126 | Ki [2]: 4.3 µM; Ki [3]: 0.18 µM; Ki [4]: 4.5 µM
35 | CC(C)C[C@H](NC(=O)c1ccc(-c2ccccc2)cc1)C(=O)NCC#N |  | Ki [7]: 1.79 µM
36 | COC(=O)Cn1cc(COC[C@@H](C#N)NC(=O)[C@H](Cc2cccc(Br)c2)NC(=O)c2ccc(-c3ccccc3)cc2)nn1 | 0.026 | Ki [2]: 0.431 µM; Ki [5]: 0.136 µM; Ki [3]: 0.186 µM; Ki [6]: 0.131 µM; Ki [4]: 0.0676 µM
37 | CSCC[C@@H](C#N)NC(=O)[C@H](CC(C)C)NC(=O)OC(C)(C)C | > 0.33 | 
38 | N#CCNC(=O)[C@H](CC1CCCCC1)NC(=O)c1ccc(-c2noc(-c3cccs3)n2)cc1 | > 0.33 | 
39 | CCC(C)[C@H](NC(=O)OC(C)(C)C)C(=O)NCC#N (some centres not stated) | > 0.33 | 
40 | C[C@@H](C#N)N(C)C(=O)[C@H](Cc1ccccc1)NC(=O)OC(C)(C)C | > 0.33 | 
41 | CN(CC#N)C(=O)[C@H](Cc1ccccc1)NC(=O)OCc1ccccc1 | > 0.33 | 
42 | CCCC[C@H](NC(=O)OC(C)(C)C)C(=O)NCC#N | > 0.33 | 
43 | CCC[C@H](NC(=O)OC(C)(C)C)C(=O)NCC#N | > 0.33 | 
44 | CC(C)(C)OC(=O)N[C@@H](Cc1ccco1)C(=O)NCC#N | > 0.33 | 

The next lines start with results.

Row | Ki [1] [µM] | Structure (SMILES) | other results
45 | > 0.33 | CC(C)(C)OC(=O)N[C@@H](COCc1ccccc1)C(=O)NCC#N | 
46 | 94 | CC(C)C[C@H](NC(=O)OC(C)(C)C)C(=O)NCC#N | 
47 | 32 | CC(C)C[C@H](NC(=O)OCc1ccccc1)C(=O)NCC#N | 
48 | > 0.33 | CC(C)(C)OC(=O)N[C@@H](Cc1ccccc1Br)C(=O)NCC#N | 
49 | 3.46 | CC(C)(C)OC(=O)N[C@@H](Cc1ccc2ccccc2c1)C(=O)NCC#N | 
50 | > 0.33 | CC[C@H](NC(=O)OC(C)(C)C)C(=O)NCC#N | 
51 | > 0.33 | CC(C)(C)OC(=O)N[C@H](C(=O)NCC#N)c1ccccc1 | 
52 | > 0.33 | CC(C)(C)OC(=O)N[C@@H](Cc1cccs1)C(=O)NCC#N | 
53 | > 0.33 | CC(C)(C)OC(=O)N[C@H](Cc1ccccc1)C(=O)NCC#N | 
54 | > 0.33 | CC(C)(C)OC(=O)N[C@@H](Cc1ccc(F)cc1)C(=O)NCC#N | 
55 | > 0.33 | CC(C)(C)OC(=O)N[C@@H](CC1CCCCC1)C(=O)NCC#N | 
56 | > 0.33 | CC(C)(C)OC(=O)N[C@@H](CC1CC1)C(=O)NCC#N | 
57 | 33 | N#C[C@H](COCc1cn(CCC(=O)O)nn1)NC(=O)[C@H](Cc1ccccc1)NC(=O)OCc1ccccc1 | Ki [2]: 1.27 µM; Ki [3]: 2.25 µM; Ki [4]: 0.37 µM
58 | 1.23 | N#CCNC(=O)[C@H](Cc1cccc(-c2ccccc2)c1)NC(=O)c1ccc(-c2ccccc2)cc1 | Ki [2]: 0.707 µM; Ki [3]: 2.66 µM; Ki [4]: 0.0245 µM
59 | 0.33 | CSCC[C@@H](C#N)NC(=O)[C@H](CC(C)C)NC(=O)c1ccc(-c2ccccc2)cc1 | 
60 | > 0.33 | COc1ccc(C[C@H](NC(=O)OCc2ccccc2)C(=O)NCC#N)cc1 | 
61 | > 0.33 | CSCC[C@@H](C#N)NC(=O)[C@H](CC1CCCCC1)NC(=O)OC(C)(C)C | 
62 | 0.12 | N#CCNC(=O)[C@H](Cc1cccc(Br)c1)NC(=O)c1ccc(-c2ccccc2)cc1 | Ki [2]: 0.609 µM; Ki [5]: 0.205 µM; Ki [3]: 0.178 µM; Ki [6]: 0.22 µM; Ki [4]: 0.93 µM
63 | > 0.33 | N#CCNC(=O)[C@H](CC1CCCCC1)NC(=O)c1ccc(-c2ccccc2)cc1 | 
64 | 24 | N#C[C@H](COCc1cn(CC(=O)O)nn1)NC(=O)[C@H](Cc1ccccc1)NC(=O)OCc1ccccc1 | Ki [2]: 1.05 µM; Ki [3]: 4.48 µM; Ki [4]: 0.31 µM
65 | > 0.33 | CC(C)(C)OC(=O)N[C@@H](Cc1c[nH]c2ccccc12)C(=O)NCC#N | 
66 | > 0.33 | CSCC[C@H](NC(=O)OC(C)(C)C)C(=O)NCC#N | 
67 | > 0.33 | C[C@@H](C#N)NC(=O)[C@H](Cc1ccccc1)NC(=O)OCc1ccccc1 | 
